Experimental data reported in paper PMC2191575 (The Journal of Experimental Medicine, 1994).

Tested on: chimeric human/mouse MHC class II molecules
Type: binding

influenza nucleoprotein (383-395): DR-restricted synthetic peptide (SRYWAIRTRSGGN)
binding to chimeric MHC class II molecules: Specific binding was also observed
